Consider twelve molecules from ChEMBL document CHEMBL1201862, “PubChem BioAssay data set” (2004).

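Method: 48-hour compound exposure of cells in 96-well plates, five concentrations, linear interpolation of endpoints. GI50 = concentration required for 50% inhibition of growth.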 Calls of active or inactive are those of the source. Cut-off read from the data, not from the text of the source: active = GI50 up to about 1.1 µM and inactive = higher. Some results are limits rather than exact numbers.

What all share (test): inhibition of tumour cell growth, NCI panel, 48 h
For assay [1], the system named is HT-29.
Assay [2] relates to KM12.
Assay [3] deals with HL-60.
Assay [4] deals with NCI-H522.
In assay [5] the test system is SK-MEL-5.
Assay [6] deals with M14.
Assay [7] deals with SK-MEL-28.
Assay [8] relates to HCC 2998.
For assay [9], the system named is A549.
Assay [10] deals with RXF 393.
Assay [11] concerns OVCAR-4.
In assay [12] the test system is NCI-H226.
For assay [13], the system named is UACC-257.
Assay [14] relates to COLO 205.
Assay [15] concerns SR.
In assay [16] the test system is HCT-15.
Assay [17] relates to SK-OV-3.

As to `COC1=CC(=O)NCCN1`, the GI50 is > 100 µM (inactive) in assay [1]; > 100 µM (inactive) in [2]; 21 µM (inactive) in [3]; > 100 µM (inactive) in [4]; > 100 µM (inactive) in assay [5]; > 100 µM (inactive) in assay [6]. For the same molecule, the GI50 in assay [7], in assay [8], in assay [9], in assay [10], in assay [11] and in assay [12] was > 100 µM (inactive) each time. In addition, the GI50 in assay [13] was > 100 µM (inactive); in [14] it was 41.8 µM (inactive); in assay [15] it was > 100 µM (inactive); in [16] it was 52.2 µM; in [17] it was > 100 µM (inactive).
Take `Cc1ccc(NC(=O)c2cc3cc(/N=N/c4ccc(Br)cc4)ccc3oc2=O)cc1`: the GI50 in [1] was > 100 µM (inactive); in assay [2], 47.6 µM (inactive); in assay [3], 23.4 µM (inactive); in [4] it was > 100 µM (inactive); in assay [5], > 100 µM (inactive); in [6], > 10 µM (inactive). For the same molecule, the GI50 in assay [7], in assay [8], in [9], in [10], in assay [11] and in [12] was > 100 µM (inactive) throughout. The GI50 in assay [13] is > 100 µM (inactive); in [14] it was > 100 µM (inactive); in assay [15], 61 µM (inactive); in assay [16], 46 µM; in assay [17] it was > 100 µM (inactive).
With `O=C1C(=O)N(c2ccc(Cl)cc2Cl)C(=O)C(=O)C1c1nc2ccccc2s1`, the GI50 is > 82.2 µM (inactive) in assay [1]; > 100 µM (inactive) in assay [2]; 23.7 µM (inactive) in assay [3]; 24.5 µM (inactive) in [4]; 65.2 µM (inactive) in assay [5]; > 100 µM (inactive) in [6]. Further, the GI50 in assay [7] is > 87.9 µM (inactive); in assay [8], > 100 µM (inactive); in [9], > 100 µM (inactive); in [10], > 100 µM (inactive); in assay [11] it was > 78.5 µM (inactive); in [12], > 74.8 µM (inactive). For the same molecule, the GI50 in [13] is > 100 µM (inactive); in assay [14] it was > 100 µM (inactive); in assay [15] it was 28.2 µM (inactive); in assay [16] it was more than 89.1 µM; in assay [17], > 100 µM (inactive).
With `CCOC(=O)CCC(NC(=O)c1ccc(/N=C/c2nc3ccccc3nc2-c2ccccc2)cc1)C(=O)OCC` (centres undefined), the GI50 was > 100 µM (inactive) in [1]; > 100 µM (inactive) in [2]; > 100 µM (inactive) in [3]; > 100 µM (inactive) in assay [4]; > 100 µM (inactive) in [5]; 82 µM (inactive) in assay [6]. For the same molecule, the GI50 in [7] is > 100 µM (inactive); in assay [8] it was > 100 µM (inactive); in [9] it was > 100 µM (inactive); in [10] it was 64.9 µM (inactive); in assay [11], > 100 µM (inactive); in assay [12], > 100 µM (inactive). For the same molecule, the GI50 is > 100 µM (inactive) in assay [13]; > 100 µM (inactive) in assay [14]; > 100 µM (inactive) in assay [15]; more than 100 µM in assay [16]; > 100 µM (inactive) in assay [17].
Take `N#Cc1nn(-c2ccc(Cl)cc2)c(=N)c2c(N)n3nc(-c4ccccc4)cc3nc12`: the GI50 in assay [1] was 1 µM (active); in assay [2] it was < 0.01 µM (active); in assay [3], > 100 µM (inactive); in [5], 0.809 µM (active); in assay [6], 1 µM (active); in assay [7] it was 1 µM (active). Further, the GI50 is < 0.01 µM (active) in assay [8]; 1 µM (active) in [9]; 28.2 µM (inactive) in assay [10]; 0.857 µM (active) in assay [11]; 39.7 µM (inactive) in assay [12]; 1 µM (active) in assay [13]. For the same molecule, the GI50 in assay [14] was 1 µM (active); in assay [15] it was < 0.01 µM (active); in assay [16], 1 µM; in assay [17] it was 0.472 µM (active).
Take `COc1cc(/C=C2/C(=O)N(C(=O)OC(C)C)C(Cc3cc(OC)c(OC)c(C)c3OC)C(=O)N2Cc2ccccc2)c(OC)c(C)c1OC` (centres undefined): the GI50 in assay [1] is 27.9 µM (inactive); in assay [2], 54.2 µM (inactive); in assay [3], 3.52 µM (inactive); in assay [4], 3.74 µM (inactive); in [5], 14.4 µM (inactive); in assay [6], 50.9 µM (inactive). The GI50 was > 100 µM (inactive) in [7]; 38.4 µM (inactive) in assay [8]; 56.9 µM (inactive) in assay [9]; 20.4 µM (inactive) in [10]; 20.9 µM (inactive) in assay [11]; 3.35 µM (inactive) in [12]. Also, the GI50 in [13] is 7.94 µM (inactive); in [14] it was 27.2 µM (inactive); in assay [15] it was 7.24 µM (inactive); in assay [17] it was 91.2 µM (inactive).
In the case of `Cc1c(C)c2ccc3oc4ccccc4c3c2oc1=O`, the GI50 in [1], in assay [2], in assay [3], in assay [4], in assay [5] and in [6] was > 100 µM (inactive) each time. The GI50 in [7], in assay [8], in assay [9], in [10], in [11] and in assay [12] was > 100 µM (inactive) each time. Also, the GI50 was > 100 µM (inactive) in assay [13]; > 100 µM (inactive) in assay [14]; > 100 µM (inactive) in [15]; more than 100 µM in assay [16]; > 100 µM (inactive) in assay [17].
Consider `CC1(C)OC(=O)[C@@](C)([C@H](O)c2ccccc2)O1`, for which the GI50 in assay [1] was > 100 µM (inactive); in [2], > 100 µM (inactive); in [3], 32.6 µM (inactive); in assay [4], 67 µM (inactive); in assay [5], 40.1 µM (inactive); in assay [6], > 100 µM (inactive). The GI50 in [7] was > 10 µM (inactive); in assay [8], 71 µM (inactive); in assay [9], 83.2 µM (inactive); in assay [10], > 100 µM (inactive); in assay [11], > 100 µM (inactive); in assay [12], 27.6 µM (inactive). The values for the GI50 in [13], in assay [15] and in assay [17] were > 100 µM (inactive), 50.6 µM (inactive) and > 100 µM (inactive), respectively.
With `O=c1c([Se]c2coc3ccccc3c2=O)coc2ccccc12`, the GI50 is 17.1 µM (inactive) in [1]; 11.3 µM (inactive) in [2]; 23 µM (inactive) in assay [3]; 18.4 µM (inactive) in [4]; 16.3 µM (inactive) in assay [5]; 14.9 µM (inactive) in assay [6]. Further, the GI50 in [7] was 17.1 µM (inactive); in assay [8], 17.7 µM (inactive); in assay [9], 6.3 µM (inactive); in assay [10], 15.9 µM (inactive); in assay [11] it was 16.9 µM (inactive); in assay [12], 14.1 µM (inactive). In addition, the GI50 is 17.4 µM (inactive) in assay [13]; 16.2 µM (inactive) in assay [14]; 4.72 µM (inactive) in assay [15]; 16.9 µM in assay [16]; 16.2 µM (inactive) in [17].
For the molecule `CN(C)CC(/C(Cc1ccccc1)=N\NC(=O)C[n+]1ccccc1)c1ccccc1` (centres undefined), the GI50 in assay [1] was > 100 µM (inactive); in assay [2] it was > 100 µM (inactive); in [3] it was > 100 µM (inactive); in [4] it was 80.9 µM (inactive); in assay [5] it was > 100 µM (inactive); in [6], > 100 µM (inactive). The GI50 in assay [7], in assay [8], in [9], in assay [10], in assay [11] and in assay [12] was > 100 µM (inactive) throughout. Further, the GI50 was > 100 µM (inactive) in assay [13]; > 100 µM (inactive) in assay [14]; > 100 µM (inactive) in assay [15]; more than 100 µM in [16]; > 100 µM (inactive) in assay [17].
As for `CCOCN1COCN/C1=N/C#N`, the GI50 in [1], in [2], in assay [3], in [4], in [5] and in assay [6] was > 100 µM (inactive) each time. Also, the GI50 in assay [7] is > 100 µM (inactive); in assay [8] it was > 100 µM (inactive); in assay [9], 31.8 µM (inactive); in [10], 0.094 µM (active); in [11], > 100 µM (inactive); in [12] it was > 100 µM (inactive). Besides, the GI50 is > 100 µM (inactive) in assay [13]; 28.3 µM (inactive) in assay [14]; 25.8 µM (inactive) in [15]; 58.5 µM in [16]; > 100 µM (inactive) in [17].
On to `Cc1ccc(S(=O)(=O)OC(COC(=O)c2ccccc2)C(OS(=O)(=O)c2ccc(C)cc2)C(OS(=O)(=O)c2ccc(C)cc2)C(COC(=O)c2ccccc2)OS(=O)(=O)c2ccc(C)cc2)cc1` (centres undefined), for which the GI50 in assay [1], in assay [2], in [3], in [4], in assay [5] and in [6] was > 100 µM (inactive) throughout. Besides, the GI50 in assay [7], in assay [8], in [9], in assay [10], in assay [11] and in [13] was > 100 µM (inactive) in each case. For the same molecule, the GI50 in assay [14] was > 100 µM (inactive); in [15], > 100 µM (inactive); in assay [16], more than 100 µM; in assay [17], > 10 µM (inactive).
